Data published in patent US20260285853A1, “COMPOUNDS AND METHODS FOR MODULATING SPLICING” (REMIX THERAPEUTICS INC., priority 2023, published 2026).
Like-named read-outs stand apart in the source and are kept apart here.

Tests used:
Type in all cases: cell-based
[1] = test system: SH-SY5Y (human neuroblastoma) cells; assay: Cell viability, Cell Titer Glo 2.0 assay; settings: read-out: Viability SHSY5Y.3 GI50
Method in brief: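 Steps: serial DMSO dilution of compound, 1:100 dilution into medium, addition to cells (0.1% DMSO final). Incubate 72 h at 37 °C, 5% CO2. Assay with CellTiter-Glo 2.0 reagent.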

MYB mRNA [2] = assay: Splicing RT-qPCR assay (THP), Table 2A
HTT mRNA [3] = assay: Splicing RT-qPCR assay (THP), Table 2A
MYB mRNA [4] = assay: Gene panel canonical junction qPCR assay, decrease in CJ mRNA, Table 3
Method in brief: (§1)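 IC50 is the concentration giving 50% response in decrease of the canonical junction transcript, fitted with a 4-parameter logistic equation. Transcripts were quantified by RT-qPCR in A673 or K562 cells after 24 h exposure to compounds dosed up to 10 uM in 3-fold steps.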

HTT mRNA [5] = assay: as above
Method in brief: as §1

[6] = Table 2A (THP), AJ mRNA increase, read-out: MYB AJ (increase in alternative junction mRNA, AC50)
[7] = Table 2A (THP), CJ mRNA decrease, read-out: MYB CJ (decrease in canonical junction mRNA, IC50)
[8] = Table 2A (THP), AJ mRNA increase, read-out: HTT AJ (increase in alternative junction mRNA, AC50)
[9] = Table 2A (THP), CJ mRNA decrease, read-out: HTT CJ (decrease in canonical junction mRNA, IC50)
[10] = decrease in canonical junction (CJ) mRNA, gene panel qPCR, Table 3
[11] = Table 2A, THP, MYB alternative junction (AJ) mRNA, read-out: MYB AJ (AC50, increase in alternative junction mRNA)
[12] = Table 2A, THP, MYB canonical junction (CJ) mRNA, read-out: MYB CJ (IC50, decrease in canonical junction mRNA)
[13] = Table 2A, THP, HTT alternative junction (AJ) mRNA, read-out: HTT AJ (AC50, increase in alternative junction mRNA)
[14] = Table 2A, THP, HTT canonical junction (CJ) mRNA, read-out: HTT CJ (IC50, decrease in canonical junction mRNA)
[15] = decrease in CJ mRNA levels, canonical junction qPCR, gene panel

GI50 [1]	IC50 (MYB mRNA [2]; [7])	IC50 (HTT mRNA [3]; [9])	IC50 (MYB mRNA [4]; [10])	IC50 (HTT mRNA [5]; [10])	IC50 (MYB mRNA [2]; [12])	IC50 (HTT mRNA [3]; [14])	IC50 (MYB mRNA [4]; [15])	IC50 (HTT mRNA [5]; [15])	SMILES	AC50 (MYB mRNA [2]; [6])	AC50 (HTT mRNA [3]; [8])	AC50 (MYB mRNA [2]; [11])	AC50 (HTT mRNA [3]; [13])
> 10 µM	> 10 µM	> 10 µM	> 10 µM	> 10 µM					CCNC1CCN(c2cc(F)c(C(=O)Nc3cn4cc(CC5CC5)nc4c(F)c3OC)c3nn(C)cc23)CC1 [Compound 336, N-[2-(cyclopropyl-methyl)-8-fluoro-7-methoxyimidazo-[1,2-a]pyridin-6-yl]-4-[4-(ethylamino)-1-piperidyl]-6-fluoro-2-methyl-indazole-7-carboxamide]	> 10 µM	> 10 µM		
0.1 to 1 µM	< 0.1 µM	0.1 to 1 µM	< 0.1 µM	0.1 to 1 µM					CCNC1CCN(c2cc(F)c(C(=O)Nc3cn4cc(C)nc4c(Cl)c3OC)c3nn(C)cc23)CC1 [Compound 357, N-(8-chloro-7-methoxy-2-methylimidazo[1,2-a]pyridin-6-yl)-4-[4-(ethylamino)-1-piperidyl]-6-fluoro-2-methyl-indazole-7-carboxamide]	< 0.1 µM	0.1 to 1 µM		
> 10 µM					> 10 µM	> 10 µM	> 10 µM	> 10 µM	Cc1c2cc(NC(=O)c3ccc(N4CCC(NC5CC5)CC4)c4cn(C)nc34)cc(CNS(C)(=O)=O)c2nn1C [Compound 869]			> 10 µM	> 10 µM
> 10 µM	> 10 µM	> 10 µM	> 10 µM	> 10 µM					Cn1cc2cc(NC(=O)c3c(F)cc(N4CCC(NC5CC5)CC4)c4cn(C)nc34)c(OC3CC3)cc2n1 [Compound 438, N-[6-(cyclopropoxy)-2-methyl-indazol-5-yl]-4-[4-(cyclopropylamino)-1-piperidyl]-6-fluoro-2-methyl-indazole-7-carboxamide]	> 10 µM	> 10 µM		
1 to 10 µM	1 to 10 µM	> 10 µM	1 to 10 µM	> 10 µM					Cc1cn2cc(NC(=O)c3ccc(N4CCC(NCC5CC5)CC4)c4cn(C)nc34)nc2c(C)n1 [Compound 575]	0.1 to 1 µM	> 10 µM		
0.1 to 1 µM	0.1 to 1 µM	0.1 to 1 µM	0.1 to 1 µM	0.1 to 1 µM					CCNC1CCN(c2ccc(C(=O)Nc3cc(CC(=O)O)c4nc(C)cn4c3)c3nn(C)cc23)CC1 [Compound 339, 2-[6-[[4-[4-(ethylamino)-1-piperidyl]-2-methyl-indazole-7-carbonyl]amino]-2-methyl-imidazo[1,2-a]-pyridin-8-yl]acetic acid]	0.1 to 1 µM	0.1 to 1 µM		
1 to 10 µM					> 10 µM	> 10 µM	> 10 µM	> 10 µM	CC(c1cc(NC(=O)c2ccc(N3CCC(NC4CC4)CC3)c3cn(C)nc23)cc2cn(C)nc12)S(=O)(=O)N(C)C (centres unmarked) [Compound 868]			> 10 µM	> 10 µM
> 10 µM	1 to 10 µM	> 10 µM	1 to 10 µM	> 10 µM					Cc1cn2cc(NC(=O)c3c(F)cc(N4CCC(NC5CC5)CC4)c4cn(C)nc34)nc2c(CN)n1 [Compound 392, N-[8-(aminomethyl)-6-methyl-imidazo[1,2-a]-pyrazin-2-yl]-4-[4-(cyclopropylamino)-1-piperidyl]-6-fluoro-2-methyl-indazole-7-carboxamide]	1 to 10 µM	> 10 µM		
0.1 to 1 µM					> 10 µM	> 10 µM	> 10 µM	> 10 µM	Cc1cn2nc(NC(=O)c3ccc(N4CCC(NC5CC5)CC4)c4cn(C)nc34)cc(CN)c2n1 [Compound 870]			> 10 µM	> 10 µM
1 to 10 µM	1 to 10 µM	> 10 µM	1 to 10 µM	> 10 µM					COc1nc2nccn2cc1NC(=O)c1ccc(N2CCC(NC3CC3)CC2)c2cn(C)nc12 [Compound 598, 4-[4-(cyclopropylamino)-1-piperidyl]-N-(7-methoxy-imidazo[1,2-a]pyrimidin-6-yl)-2-methyl-indazole-7-carboxamide]	1 to 10 µM	> 10 µM		
< 0.1 µM					< 0.1 µM	0.1 to 1 µM	< 0.1 µM	0.1 to 1 µM	Cc1nc2c(C(=O)Nc3cc(F)c4nn(C)cc4c3)ccc(N3C[C@H](C)N[C@@H](C)C3)c2s1 [Compound 780]			< 0.1 µM	0.1 to 1 µM
1 to 10 µM					> 10 µM	> 10 µM	> 10 µM	> 10 µM	Cc1cn2cc(NC(=O)c3c(F)cc(N4CCC(NC5CC5)CC4)c4nc(C)sc34)cc(F)c2n1 [Compound 662, 4-[4-(cyclopropyl-amino)-1-piperidyl]-6-fluoro-N-(8-fluoro-2-methyl-imidazo[1,2-a]pyridin-6-yl)-2-methyl-1,3-benzothiazole-7-carboxamide]			> 10 µM	> 10 µM
1 to 10 µM	> 10 µM	> 10 µM	> 10 µM	> 10 µM					CCNC1CCN(c2cc(F)c(C(=O)Nc3cn4cc(C5CC5)nc(C)c4n3)c3nn(C)cc23)CC1 [Compound 346, N-(6-cyclopropyl-8-methyl-imidazo[1,2-a]pyrazin-2-yl)-4-(4-(ethylamino)-piperidin-1-yl)-6-fluoro-2-methyl-2H-indazole-7-carboxamide bis(2,2,2-trifluoroacetate)]	> 10 µM	> 10 µM		
0.1 to 1 µM					< 0.1 µM	1 to 10 µM	< 0.1 µM	1 to 10 µM	C[C@H]1CN(c2ccc(C(=O)Nc3cc(F)c4nn(C)cc4c3)c3nc(CN)sc23)C[C@H](C)N1 [Compound 707, 2-(aminomethyl)-7-[(3S,5S)-3,5-dimethylpiperazin-1-yl]-N-(7-fluoro-2-methyl-indazol-5-yl)-1,3-benzothiazole-4-carboxamide]			< 0.1 µM	0.1 to 1 µM
0.1 to 1 µM	1 to 10 µM	1 to 10 µM	1 to 10 µM	1 to 10 µM					Cc1cc2cc(NC(=O)c3ccc(N4CCC(NC5CC5)CC4)c4cn(C)nc34)n(C)c2c(C)n1 [Compound 469, 4-[4-(cyclopropyl-amino)-1-piperidyl]-2-methyl-N-(1,5,7-trimethyl-pyrrolo[2,3-c]-pyridin-2-yl)indazole-7-carboxamide]	1 to 10 µM	1 to 10 µM		
1 to 10 µM					1 to 10 µM	1 to 10 µM	1 to 10 µM	1 to 10 µM	COc1c(NC(=O)c2ccc(N3CCC(NC4CC4)CC3)c3cc(C)nn23)cn2cc(C)nc(C)c12 [Compound 630, 4-[4-(cyclopropylamino)-1-piperidyl]-N-(8-methoxy-1,3-dimethyl-pyrrolo[1,2-a]pyrazin-7-yl)-2-methyl-pyrazolo[1,5-a]pyridine-7-carboxamide]			1 to 10 µM	1 to 10 µM
< 0.1 µM					< 0.1 µM	< 0.1 µM	< 0.1 µM	< 0.1 µM	COc1nc2c(C(=O)Nc3cc(F)c4nn(C)cc4c3)ccc(N3CCN[C@@H](C)C3)c2s1 [Compound 766]			< 0.1 µM	< 0.1 µM
